From patent US20030235577A1, “Methods and compositions for preventing and treating microbial infections” (priority 2002, published 2003)

Tests used:
S. aureus [1] = experiment: In vitro antimicrobial activity, co-incubation with S. aureus in 5% LB and CFU count; type: cell-based, Staphylococcus aureus; details: S. aureus, 5% LB culture, similar doses and conditions as full-length MMP-12
Description: S. aureus co-culture was incubated for 60 minutes with doses of MMP-12 C-terminal. Aliquots of cultures were diluted in PBS at 1:10 and 1:100 dilution. Dilutions were plated on LB agar plates for 18 hour incubation at 37° C. Controls consisted of column fractions that lacked MMP-12 carboxy terminal determined by immunoblotting.
MMP-12's mechanism of action as a host defense protein was investigated. To test for direct activity, functional full-length recombinant human MMP-12 was incubated with S. aureus in a 5% LB culture. […] MMP-12 enzymatic activity was not required for this antimicrobial effect.
Mid-log phase bacteria (10^5) were incubated in the absence or presence of purified MMP-12 C-terminal in a total volume of 100 μl of 10 mmol/L sodium phosphate containing 5% (vol/vol) TSB at 37° C. for 1 hour. Serial dilutions were then spread on agarose plates and the number of CFUs were determined after overnight incubation.

S. aureus [2] = experiment: Propidium iodide exclusion assay with fluorescence microscopy; type: cell-based, Staphylococcus aureus; details: 20 μg/ml, 30 minutes
Description: Recombinant segments of MMP-12 C-terminal were generated each covering one third of the C-terminal. Segments were then tested for anti-microbial activity against S. aureus. […] We hypothesized that in this region there was a secondary structure that had potential antimicrobial structure and properties consistent with the structure in cathelicidins. A predicted amphipathic and alpha helical structure was found in this region, which was conserved in the MMP-12 C-terminal domains from rabbit, rat, mouse and human. […] These studies have been repeated n>10 with similar results. FIG. 10 illustrates thae effect of MMP-12 C-terminal domain on cell survival.

S. aureus [3] = experiment: Peritonitis model, peptide injected intraperitoneally after S. aureus; type: in vivo, C57/B16 mice; details: 72 hour time point, peptide 1 mg intraperitoneally; for survival: S. aureus 6×10^7 CFU
Description: Bacterial preparation: Staphylococcus aureus a clinical isolate was grown in tryptic soy broth for 18 hours at 37° C. An aliquot was placed in fresh media and grown until mid-log phase of growth. S. aureus was centrifuged and washed in sterile PBS and diluted. Bacteria concentration of O.D.540 of 0.9, corresponding to a concentration of 6×10^7 CFU/ml was used for inoculation.
Peptide preparation: Murine MMP-12 C-terminal peptide […] (SEQ ID NO:37; 333-352) and Human MMP-12 C-terminal peptide […] (SEQ ID NO:36; 341-359) and a human MMP-12 peptide with a single nucleotide polymorphism: […] (SEQ ID NO:55) were solubilized in sterile H2O at a concentration of 4 mg/ml.
Peritonitis model: C57/B16 mice received intraperitoneal injection of bacteria in a total volume of 1 ml (6×10^7 CFU). Peptides were intraperitoneally injected immediately after at a dose of 1 mg. […] The control mice received the same intraperitoneal injection of bacteria as in the test groups and then received an injection of vehicle with no peptide.

S aureus = experiment: Dose response of S. aureus to MMP-12 C-terminal peptides; type: cell-based, Staphylococcus aureus; details: various concentrations of peptide, 100 minutes
Description: Dose response: samples of S aureus were incubated with various concentrations of murine peptide (SEQ ID NO: 37), human peptide (SEQ ID NO: 36) and Human SNP peptide (SEQ ID NO:55). The human SNP peptide (SEQ ID NO:55) has a single nucleotide change from the sequence of SEQ ID NO 36. The peptide SEQ ID NO:36 has the amino acid sequence: […] and the peptide SEQ ID NO:55 has the amino acid sequence […]. The amount of bacteria remaining at various the various concentrations was determined for each group of a 100 minute time course.

Substance	direct antimicrobial activity (S. aureus [1])	amount of S. aureus remaining (S aureus)	also measured
MMP-3: commercially available full length pro-MMP 3 [reference compound]	did not demonstrate this direct antimicrobial activity		
SRDLMFIFRGRKFWALNGYD [MMP-13 peptide, reference compound]			bacterial death, uptake of membrane impermeant dye (S. aureus [2]): little dye uptake
SRNQLFLFKDEKYWLINNLV (listed as Mus musculus) [Murine MMP-12 peptide]		higher at each concentration	activity (clinical observation) (S. aureus [3]): decrease activity; survival (S. aureus [3]): 75%; bacterial death, uptake of membrane impermeant dye (S. aureus [2]): clumping and increased uptake of membrane impermeant dye
MMP-7: commercially available full length pro-MMP 7 [reference compound]	did not demonstrate this direct antimicrobial activity		
ARNQVFLFKDDKYWLISNLR (listed as Homo sapiens) [Human MMP-12 peptide]		zero S. aureus at most concentrations	activity (clinical observation) (S. aureus [3]): normal activity; survival (S. aureus [3]): 100%
MMP-8: commercially available full length pro-MMP 8 [reference compound]	did not demonstrate this direct antimicrobial activity		
ARNQVFLFKDDKYWLISSLR (listed as Homo sapiens) [Human SNP]		zero S aureus at all concentrations	
